Experimental data: patent US7553826B2, “Cytarabine monophosphate prodrugs” (Metabasis Therapeutics, Inc., priority 2002, dated 2009)

Assays:
[1] = Single IP injection liver targeting in rat; assay type: in vivo; conditions: 100 mg CE/kg single IP injection
[2] = system: human liver microsomes; experiment: Enzyme kinetics of prodrug activation to araCMP in human liver microsomes
[3] = Aqueous stability; assay type: physicochemical; conditions: 100 mM citrate, pH5.0, 37° C, 50 μM
Experimental: Diluted solutions (50 μM) were incubated at 37° C. in a Fisher Scientific dry bath incubator (catalog # 11-718-2) with samples collected every 24 hours and stored at −80° C. Plasma samples (100 μL) were quenched with 1 mL of acetonitrile. […] Samples were resuspended in 120 μL of mobile phase buffer before HPLC injection.
Samples were analyzed on an HP1090 or HP1100 (Hewlett Packard) HPLC using a C-18 Alltech Econosphere column, 150 mm×4.6 mm (catalog # 70065), with a C-18 Alltech Econosphere guard column, 7.5 mm×4.6 mm (catalog # 96121). Samples were eluted with a methanol gradient: 0% for 5 minutes, then increasing to 10% at 10 minutes, 30% at 20 minutes, and 60% at 25 minutes. The column was allowed to equilibrate in 0% methanol for 10 minutes before the next injection. The flow rate was 1 mL/minute with a column temperature of 40° C. Prodrugs eluted around 19.5 minutes and were monitored by UV absorbance at 280 nm. For prodrugs in aqueous conditions, the same method was employed except the methanol gradient was as follows: 0% for 5 minutes, increasing to 10% at 10 minutes, and 30% at 20 minutes with prodrug eluting around 20 minutes.

[4] = Rat acute toxicity, 24 hr continuous i.v. infusion; assay type: in vivo; conditions: rats, 2000 mg/kg/24 hrs continuous i.v. infusion
Experimental: Male and female Simonsen rats were instrumented for continuous infusion as described in Example C. On the day of treatment, the rats were hooked up to the constant infusion tether and given free access to food and water. Three male and three female rats were treated Compound A at a dose of 2000 mg/kg/24 hrs using a flow rate of 2.08 ml/kg/hr. Compound A was dissolved at 42.5 mg/ml in water and the pH adjusted to 4 with 1M HCl. The osmolarity was adjusted to ˜300 mOsm using 5M NaCl. As a control, 2 male rats were infused with pH 4 saline for the same period of time. The appearance and disposition of the rats was monitored regularly and notes about their behavior recorded every 1-3 hrs during the working day.
The animals were anesthetized in a chamber supplied via a Fluotec 3 vaporizer with 5% isoflurane (Abbot Laboratories, NDC 0074-3292-02) in 100% oxygen at a flow rate of 1.5 to 2 liters per minute. […] The blood from each animal was divided between K2-EDTA-containing microtainer tubes (Becton Dickinson, 36/5974) and microtainer tubes with gel separators for serum (Becton Dickinson, 36/5956) and lithium heparin for plasma collection (Becton Dickinson, 36/5958). If possible, urine was removed from the bladder using a 23-gauge needle attached to a 3 cc syringe. Tissue samples were collected in the following order: liver, kidneys, small intestine, bladder and bone marrow. The small intestine was divided into three equal portions to represent samples from the duodenum, jejunum and ileum; fecal matter was manually removed by gentle sliding pressure using a blunt forceps. From each tissue, a portion was placed in 10% buffered formalin for histology.
For cell counting, […] of EDTA-treated blood or PBS-suspended bone marrow flush was mixed with 450 μL or 950 μL, respectively, nuclear staining solution containing 0.19 mg/mL crystal violet (Sigma # C-1658, lot 112H3660) in 1 M acetic acid, and incubated at room temperature for at least 5 min. After brief vortexing, a 10 μl aliquot of the mixture was placed in a hemocytometer and cells were counted using a Nikon Optiphot-2 microscope. The blood samples were counted under a 40× objective to evaluate the number of mononuclear cells (lymphocytes and monocytes) and polymorphonuclear cells (PMN, including granulocytes of the neutrophil, eosinophil and basophil type). Nucleated bone marrow cells were counted under a 10× objective.
EDTA-treated blood samples were submitted to LabCorp (San Diego, Calif.) for hematology analysis including erythrocyte and platelet numbers, hemoglobin, and hematocrit. Serum chemistry analysis was also performed by LabCorp. […]

Question: Which results are given for `Nc1ccn([C@@H]2O[C@H](CO[P@@]3(=O)OCC[C@@H](c4ccncc4)O3)[C@@H](O)[C@@H]2O)c(=O)n1` [Compound A, 2(1H)-Pyrimidinone, 4-amino-1-[5-O-[(2R,4S)-2-oxido-4-(4-pyridinyl)-1,3,2-dioxaphosphorinan-2-yl]-β-D-arabinofuranosyl]]?
Answer: LTI (Liver/plasma) [1]: 19.2 nmol/g/μM; Liver araCTP Peak @ 1 hr [1]: 267 nmol/g; Vmax ([2]; activation to araCMP, 2 mg/mL human liver microsomes lot RQX, 1 mM NADPH, pH 7.4, 37° C, 5 min): 0.11 ± 0.02 nmol/min/mg; Km ([2]; activation to araCMP, human liver microsomes lot RQX): 1080 ± 270 µM; intrinsic clearance / activation rate relative to Compound B ([2]; human liver microsomes lot RQX): 2.6 fold; t90 in aqueous solution [3]: 2 days; serum chemistry and hematology parameters [4]: generally within normal ranges; serum triglycerides levels [4]: outside the normal range; overt toxicity ([4]; 24 hr treatment): no overt toxicity was noted; tolerability ([4]; 24 hrs): well tolerated
